# In patent EP0238178B1, “Novel derivatives of erythromycylamine” (ELI LILLY AND COMPANY, priority 1986, dated 1987):
# Like-named read-outs stand apart in the source and are kept apart here.
# How the values were obtained:
# [1] = test system: Streptococcus sp. group D 2041; experiment: MIC, standard agar-dilution assay; assay type: cell-based; conditions: read-out: MIC
# Streptococcus pyogenes = experiment: Experimental bacterial infection in mice, ED50; assay type: in vivo; conditions: two doses, dose protecting 50% of animals; for ED50: Streptococcus pyogenes
# Protocol: (§1) The new derivatives of this invention have also shown in vivo antimicrobial activity against experimental bacterial infections. When two doses of test compound were administered to mice in experimental infections, the activity observed was measured as an EDso value [effective dose in mg/kg to protect 50% of the test animals: see Warren Wick, et al., J. Bacteriol. 81, 233-235 (1961)].
# Streptococcus pneumoniae = experiment: Experimental bacterial infection in mice, ED50; assay type: in vivo; conditions: two doses, dose protecting 50% of animals; for ED50: Streptococcus pneumoniae
# Protocol: as §1
# Staphylococcus aureus = experiment: Experimental bacterial infection in mice, ED50; assay type: in vivo; conditions: two doses, dose protecting 50% of animals; for ED50: Staphylococcus aureus
# Protocol: as §1
# [2] = test system: Haemophilus influenzae C.L.; experiment: MIC, standard agar-dilution assay; assay type: cell-based; conditions: Ampicillin-sensitive strain, read-out: MIC
# [3] = test system: Klebsiella pneumoniae X68; experiment: MIC, standard agar-dilution assay; assay type: cell-based; conditions: read-out: MIC
# [4] = test system: Staphylococcus epidermidis 222; experiment: MIC, standard agar-dilution assay; assay type: cell-based; conditions: read-out: MIC
# [5] = test system: Haemophilus influenzae 76; experiment: MIC, standard agar-dilution assay; assay type: cell-based; conditions: Haemophilus influenzae 76, Ampicillin-resistant strain; read-out: MIC
# Escherichia coli EC14 = experiment: MIC, standard agar-dilution assay; assay type: cell-based; conditions: read-out: MIC
# [6] = test system: Streptococcus pyogenes C203; experiment: MIC, standard agar-dilution assay; assay type: cell-based; conditions: read-out: MIC
# [7] = test system: Staphylococcus aureus X1.1; experiment: MIC, standard agar-dilution assay; assay type: cell-based; conditions: read-out: MIC
# [8] = test system: Streptococcus pneumoniae Park I; experiment: MIC, standard agar-dilution assay; assay type: cell-based; conditions: read-out: MIC
# [9] = test system: Staphylococcus aureus S13E; experiment: MIC, standard agar-dilution assay; assay type: cell-based
# [10] = test system: Streptococcus sp. group D X66; experiment: MIC, standard agar-dilution assay; assay type: cell-based; conditions: Streptococcus sp. group D X66; read-out: MIC
# [11] = test system: Staphylococcus aureus V41; experiment: MIC, standard agar-dilution assay; assay type: cell-based; conditions: Staphylococcus aureus V41, Penicillin-resistant strain, inducibly-resistant to erythromycin; read-out: MIC
# Excerpt: (§2) In addition to excellent in vitro activity against erythromycin-sensitive bacteria, several members of this new series have shown in vitro activity against erythromycin-resistant strains. These include strains which are inducibly-resistant to erythromycin (S.. aureus V41 and X400 and S. epidermidis EPI1) and even strains which are constitutively-resistant (S. epidermidis 270).
# [12] = test system: Staphylococcus aureus X400; experiment: MIC, standard agar-dilution assay; assay type: cell-based; conditions: Staphylococcus aureus X400, Methicillin-resistant strain, inducibly-resistant to erythromycin; read-out: MIC
# Excerpt: as §2
# [13] = sc, subcutaneous, read-out: Subcutaneous ED50
Structure (SMILES),MIC [1] [mg/L],"ED50 (Streptococcus pyogenes; po, read-out: Oral ED50) [mg/kg]","ED50 (Streptococcus pneumoniae; po, read-out: Oral ED50) [mg/kg]","ED50 (Staphylococcus aureus; po, read-out: Oral ED50) [mg/kg]",MIC [2] [mg/L],MIC [3] [mg/L],MIC [4] [mg/L],MIC [5] [mg/L],MIC (Escherichia coli EC14) [mg/L],MIC [6] [mg/L],MIC [7] [mg/L],MIC [8] [mg/L],MIC [9] [mg/L],MIC [10] [mg/L],Oral ED50 (Streptococcus pyogenes) [mg/kg],Oral ED50 (Streptococcus pneumoniae) [mg/kg],further results
"CCN[C@@H]1[C@H](C)[C@@H](O)[C@](C)(O)[C@@H](CC)OC(=O)[C@H](C)[C@@H](O[C@H]2C[C@@](C)(OC)[C@@H](O)[C@H](C)O2)[C@H](C)[C@@H](O[C@@H]2O[C@H](C)C[C@H](N(C)C)[C@H]2O)[C@](C)(O)C[C@H]1C [Compound 2, (9S)-9-Deoxo-9-(ethylamino)erythromycin]",4,12.5,13.4,23.4,1,64,1,4,32,0.125,1,0.03,2,0.25,–,–,–
"CCCN[C@@H]1[C@H](C)[C@@H](O)[C@](C)(O)[C@@H](CC)OC(=O)[C@H](C)[C@@H](O[C@H]2C[C@@](C)(OC)[C@@H](O)[C@H](C)O2)[C@H](C)[C@@H](O[C@@H]2O[C@H](C)C[C@H](N(C)C)[C@H]2O)[C@](C)(O)C[C@H]1C [Compound 3, 9-Deoxo-9-(n-propylamino)erythromycin]",4,3.3,7.2,11.8,1,128,0.5,2,32,0.03,1,0.015,0.25,0.125,6.1,6.3,ED50 (Streptococcus pyogenes; [13]): 1.67 mg/kg; ED50 (Streptococcus pneumoniae; [13]): 1.77 mg/kg; ED50 (Staphylococcus aureus; [13]): 6.11 mg/kg; Oral ED50 (Staphylococcus aureus; oral): 12.6 mg/kg
"CCCCN[C@@H]1[C@H](C)[C@@H](O)[C@](C)(O)[C@@H](CC)OC(=O)[C@H](C)[C@@H](O[C@H]2C[C@@](C)(OC)[C@@H](O)[C@H](C)O2)[C@H](C)[C@@H](O[C@@H]2O[C@H](C)C[C@H](N(C)C)[C@H]2O)[C@](C)(O)C[C@H]1C [Compound 4, 9-Deoxo-9-(n-butylamino)erythromycin]",1,12.5,12.5,14.7,1,128,0.25,1,64,0.06,0.25,0.015,1,0.125,–,–,–
"CCCCCN[C@@H]1[C@H](C)[C@@H](O)[C@](C)(O)[C@@H](CC)OC(=O)[C@H](C)[C@@H](O[C@H]2C[C@@](C)(OC)[C@@H](O)[C@H](C)O2)[C@H](C)[C@@H](O[C@@H]2O[C@H](C)C[C@H](N(C)C)[C@H]2O)[C@](C)(O)C[C@H]1C [Compound 5, 9-Deoxo-9-(n-pentylamino)erythromycin]",2,8.8,13.6,25,1,128,0.5,2,128,0.06,0.5,0.015,1,0.125,–,–,–
"CCCCCCCCN[C@@H]1[C@H](C)[C@@H](O)[C@](C)(O)[C@@H](CC)OC(=O)[C@H](C)[C@@H](O[C@H]2C[C@@](C)(OC)[C@@H](O)[C@H](C)O2)[C@H](C)[C@@H](O[C@@H]2O[C@H](C)C[C@H](N(C)C)[C@H]2O)[C@](C)(O)C[C@H]1C [Compound 8, 9-Deoxo-9-(n-octylamino)erythromcin]",1,23.4,46.1,> 50,1,–,0.25,1,–,0.015,0.5,0.015,0.25,0.06,38.3,> 50,MIC [11]: 8 mg/L; MIC [12]: 8 mg/L
